According to the supplement of paper PMC10307832:

Columns and labels:
Assay in all cases: relative viability (nuclei count vs DMSO), 5 days (fraction); higher = more cells survive
Obatoclax + Pemetrexed = compound: COC1=CC(c2cc3ccccc3[nH]2)=N/C1=C\c1[nH]c(C)cc1C [Obatoclax] + Nc1nc2[nH]cc(CCc3ccc(C(=O)N[C@@H](CCC(=O)O)C(=O)O)cc3)c2c(=O)[nH]1 [Pemetrexed] (partner 0.2 µM)
Summary of the method: (§1)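 Lung cancer cell lines were pin-tool dosed in 1536-well plates on the day after seeding, with either a lone drug or a fixed anchor-drug dose plus five library-drug doses (not always all listed) in √10 steps. Nuclei were counted on 4× images after 5 days. Relative viability is the ratio of treated-well to vehicle-well nuclei counts, with each value a median of duplicate plates.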

Obatoclax + Palbociclib = compound: COC1=CC(c2cc3ccccc3[nH]2)=N/C1=C\c1[nH]c(C)cc1C [Obatoclax] + CC(=O)c1c(C)c2cnc(Nc3ccc(N4CCNCC4)cn3)nc2n(C2CCCC2)c1=O [Palbociclib] (partner 0.5 µM)
Summary of the method: as §1

Bortezomib + Phenformin = compound: CC(C)C[C@H](NC(=O)[C@H](Cc1ccccc1)NC(=O)c1cnccn1)B(O)O [Bortezomib] + N=C(N)NC(=N)NCCc1ccccc1 [Phenformin] (partner 250 µM)
Summary of the method: as §1

Bortezomib + Navitoclax = compound: CC(C)C[C@H](NC(=O)[C@H](Cc1ccccc1)NC(=O)c1cnccn1)B(O)O [Bortezomib] + CC1(C)CCC(c2ccc(Cl)cc2)=C(CN2CCN(c3ccc(C(=O)NS(=O)(=O)c4ccc(N[C@H](CCN5CCOCC5)CSc5ccccc5)c(S(=O)(=O)C(F)(F)F)c4)cc3)CC2)C1 [Navitoclax] (partner 0.5 µM)
Summary of the method: as §1

| Cell Line | relative viability (Obatoclax + Pemetrexed; first compound 0.01 µM) | relative viability (Obatoclax + Pemetrexed; first compound 0.03162 µM) | relative viability (Obatoclax + Pemetrexed; first compound 0.1 µM) | relative viability (Obatoclax + Pemetrexed; first compound 0.3162 µM) | relative viability (Obatoclax + Pemetrexed; first compound 1 µM) | relative viability (Obatoclax + Palbociclib; first compound 0.01 µM) | relative viability (Obatoclax + Palbociclib; first compound 0.03162 µM) | relative viability (Obatoclax + Palbociclib; first compound 0.1 µM) | relative viability (Obatoclax + Palbociclib; first compound 0.3162 µM) | relative viability (Obatoclax + Palbociclib; first compound 1 µM) | relative viability (Bortezomib + Phenformin; first compound 0.0002 µM) | relative viability (Bortezomib + Phenformin; first compound 0.000632 µM) | relative viability (Bortezomib + Phenformin; first compound 0.002 µM) | relative viability (Bortezomib + Phenformin; first compound 0.006325 µM) | relative viability (Bortezomib + Phenformin; first compound 0.02 µM) | relative viability (Bortezomib + Navitoclax; first compound 0.0002 µM) | relative viability (Bortezomib + Navitoclax; first compound 0.000632 µM) | relative viability (Bortezomib + Navitoclax; first compound 0.002 µM) | relative viability (Bortezomib + Navitoclax; first compound 0.006325 µM) | relative viability (Bortezomib + Navitoclax; first compound 0.02 µM) |
| --- | --- | --- | --- | --- | --- | --- | --- | --- | --- | --- | --- | --- | --- | --- | --- | --- | --- | --- | --- | --- |
| HCC-15 | 0.215 | 0.234 | 0.215 | 0.225 | 0.228 | 0.672 | 0.728 | 0.695 | 0.752 | 0.609 | 0.44 | 0.448 | 0.458 | 0.0952 | 0.0863 | 0.706 | 0.681 | 0.692 | 0.421 | 0.116 |
| EMC-BAC-2 | 0.42 | 0.47 | 0.395 | 0.452 | 0.419 | 0.502 | 0.494 | 0.474 | 0.556 | 0.432 | 0.551 | 0.459 | 0.477 | 0.209 | 0.211 | 1.13 | 1.2 | 1.28 | 0.595 | 0.171 |
| NCI-H1734 | 0.419 | 0.427 | 0.359 | 0.415 | 0.364 | 0.3 | 0.338 | 0.337 | 0.32 | 0.303 | 0.454 | 0.37 | 0.356 | 0.155 | 0.105 | 0.86 | 0.872 | 0.662 | 0.112 | 0.0892 |
| NCI-H1395 | 0.84 | 0.781 | 0.827 | 0.711 | 0.657 | 0.554 | 0.602 | 0.597 | 0.6 | 0.439 | 0.477 | 0.435 | 0.446 | 0.361 | 0.27 | 1.27 | 1.52 | 0.448 | 0.39 | 0.345 |
| HOP-62 | 0.279 | 0.377 | 0.329 | 0.424 | 0.358 | 0.425 | 0.393 | 0.415 | 0.499 | 0.455 | 0.661 | 0.625 | 0.54 | 0.151 | 0.0609 | 1.17 | 1.05 | 0.747 | 0.243 | 0.074 |
| LK-2 | 0.273 | 0.227 | 0.248 | – | 0.317 | 0.661 | 0.728 | 0.764 | – | 0.825 | 0.416 | 0.282 | 0.514 | 0.131 | 0.149 | 0.828 | 0.878 | 0.238 | 0.172 | 0.174 |
| SW 1573 | 0.824 | 0.938 | 0.887 | 0.427 | 0.196 | 0.379 | 0.35 | 0.298 | 0.118 | 0.133 | 0.384 | 0.349 | 0.205 | 0.0918 | 0.0612 | 0.849 | 1.12 | 0.928 | 0.0531 | 0.0615 |
| SK-LU-1 | 0.861 | 0.984 | 0.937 | 0.759 | 0.415 | 0.367 | 0.419 | 0.352 | 0.326 | 0.317 | 0.561 | 0.499 | 0.467 | 0.122 | 0.0951 | 0.781 | 0.83 | 0.903 | 0.0872 | 0.0835 |
